Patent US20060217360A1, “Tubulysin biosynthesis gene” (priority 2002, published 2006)
≈ marks a conversion by molar mass, not a printed value.

Key:
Type in all cases: cell-based
[1] = test system: Botrytis cineria; assay: Agar diffusion test, spectrum of action on fungi; conditions: 20 μg per test disc of 6 mm diameter
[2] = test system: Coprinus cinereus; assay: Agar diffusion test, spectrum of action on fungi; conditions: 20 μg per test disc of 6 mm diameter
[3] = test system: Pt K2, Potorous tridactylis (ATCC CCL 56); assay: Cytostatic action on animal cell line
[4] = test system: Pythinum debaryanum; assay: Agar diffusion test, spectrum of action on fungi; conditions: 20 μg per test disc of 6 mm diameter
[5] = test system: Aspergillus niger; assay: Agar diffusion test, spectrum of action on fungi; conditions: 20 μg per test disc of 6 mm diameter
[6] = test system: KB-3-1 (DSM ACC 158); assay: Cytostatic action on human cancer cell line; conditions: KB-3-1 human cancer cell line
[7] = test system: HL-60 (ATCC-CCL 240); assay: Cytostatic action on human cancer cell line; conditions: HL-60 human cancer cell line
[8] = test system: K-562 (ATCC CCL 243); assay: Cytostatic action on human cancer cell line; conditions: K-562 human cancer cell line
[9] = test system: L929, mouse (ATCC CCL1); assay: Cytostatic action on animal cell line

CC[C@H](C)[C@H](NC(=O)[C@H]1CCCCN1C)C(=O)N(COC(=O)CC(C)C)[C@H](C[C@@H](OC(C)=O)c1nc(C(=O)N[C@@H](Cc2ccc(O)cc2)C[C@H](C)C(=O)O)cs1)C(C)C [Tubulysin A]
Inhibition zone [1]: 23 mm | Inhibition zone [2]: 20 mm | IC50 [3]: 0.2 ng/mL (≈ 0.237 nM) | Inhibition zone [4]: 20 mm | Inhibition zone [5]: 20 mm | IC50 [6]: 0.01 ng/mL (≈ 0.0118 nM) | IC50 [7]: 0.04 ng/mL (≈ 0.0474 nM) | IC50 [8]: 0.1 ng/mL (≈ 0.118 nM) | IC50 [9]: 0.2 ng/mL (≈ 0.237 nM)

CCCC(=O)OCN(C(=O)[C@@H](NC(=O)[C@H]1CCCCN1C)[C@@H](C)CC)[C@H](C[C@@H](OC(C)=O)c1nc(C(=O)N[C@@H](Cc2ccc(O)cc2)C[C@H](C)C(=O)O)cs1)C(C)C [Tubulysin B]
Inhibition zone [1]: 18 mm | IC50 [3]: 0.2 ng/mL (≈ 0.241 nM) | Inhibition zone [5]: 18 mm | IC50 [6]: 0.02 ng/mL (≈ 0.0241 nM) | IC50 [7]: 0.08 ng/mL (≈ 0.0964 nM) | IC50 [8]: 0.2 ng/mL (≈ 0.241 nM) | IC50 [9]: 0.4 ng/mL (≈ 0.482 nM)

CCC(=O)OCN(C(=O)[C@@H](NC(=O)[C@H]1CCCCN1C)[C@@H](C)CC)[C@H](C[C@@H](OC(C)=O)c1nc(C(=O)N[C@@H](Cc2ccc(O)cc2)C[C@H](C)C(=O)O)cs1)C(C)C [Tubulysin C]
IC50 [3]: 2 ng/mL (≈ 2.45 nM) | IC50 [6]: 0.1 ng/mL (≈ 0.123 nM) | IC50 [7]: 0.4 ng/mL (≈ 0.49 nM) | IC50 [8]: 1.5 ng/mL (≈ 1.84 nM) | IC50 [9]: 2 ng/mL (≈ 2.45 nM)
